Source: patent US9108930B2, “N1- and N2-carbamoyl-1,2,3-triazole serine hydrolase inhibitors and methods” (The Scripps Research Institute, priority 2011, dated 2015)
“Also recorded” adds a separate entry of the source.

What was measured:
DAGLA = biological target: T1, DAGLA (Mus musculus, UniProt Q6WQJ1); assay: Activity against recombinant DAGLA; type: biochemical
T1 construct: Full-length cDNAs encoding serine hydrolases were purchased from Open Biosystems; V5; host or cells: HEK293T

[1] = test system: serine hydrolases in mouse brain proteome; assay: Selectivity profile by competitive ABPP (mouse brain proteome), DAGL series; type: biochemical
endogenous DAGLB = biological target: T2, endogenous DAGLB (Mus musculus, UniProt Q91WC9); assay: HT01 labeling of endogenous DAGLB in mouse brain and peritoneal macrophage proteomes; type: biochemical; details: 2 μM pretreatment
T2 construct: from tissue; host or cells: mouse brain and peritoneal macrophages

peritoneal macrophages = assay: Metabolomics of thioglycolate-elicited peritoneal macrophages from treated mice; type: in vivo, mouse; details: 5 mg/kg, 4 hours, i.p.
Description: Mice were treated with KT109, KT172 or KT195 (5 mg/kg, 4 hours, i.p.) to evaluate whether blockade of DAGLB in peritoneal macrophages would result in metabolic effects similar to those observed in Neuro2A cells. Thioglycolate-elicited peritoneal macrophages were harvested, and the cells were subjected to metabolomics studies. […] All the metabolic effects observed in pharmacological studies were recapitulated using Daglb^−/− mice, providing genetic evidence that the changes were indeed DAGLB-mediated.
Metabolites were quantified by either selected reaction monitoring (SRM) of each metabolite using an Agilent G6410B Triple-Quad instrument or untargeted metabolomic analysis (substrate assays) using an Agilent 1100 series LC-MSD SL instrument. […] For analysis of diacylglycerols (DAGs) a Luna C5 column (50 mm×4.60 mm with 5 μm diameter particles) from Phenomenex was used. Mobile phase A was made of 95:5 v/v H2O:MeOH, and mobile phase B was composed of 60:35:5 v/v/v i-PrOH:MeOH:H2O. Ammonium hydroxide (0.1%) and formic acid (0.1%) was included to assist in ion formation in negative and positive ionization modes, respectively. For analysis of DAGs, 5 mM ammonium formate was also used in addition to 0.1% formic acid to assist in positive ionization and NH4+ adduct formation. For metabolite measurements, cells were resuspended in 1 mL of a 1% NaCl solution and added to 3 mL of a 2:1 v/v CHCl3:MeOH doped with 1 nmol of the following internal standards: d5-2-arachidonoylglycerol (2-AG), d8-arachidonic acid (AA), and d8-1-stearoyl-2-arachidonoylglycerol (SAG). The mixture was vortexed and then centrifuged (1,400×g, 3 min). The organic layer was removed, CHCl3 was added until the final volume was again 4 ml, and the extraction was repeated. The combined organic extracts were dried under a stream of N2 and resolubilized in 2:1 v/v CHCl3:MeOH (120 μl). 30 μL of resolubilized lipids were injected for positive mode (MAGs and DAGs) and negative mode (free fatty acids and eicosanoids) measurements.
The following parameters (MS) were used to measure the indicated metabolites by SRM (precursor ion, product ion, collision energy in V, polarity): C20:4 MAG or 2-AG (379, 287, 8, positive), d5-2-AG (384, 287, 5, positive), C18:0/C20:4 DAG or SAG (662, 341, 15, positive), d8-SAG (671, 671, 0, positive), C18:1/C20:4 DAG (660, 341, 15, positive), C16:0/C20:4 DAG (634, 341, 15, positive), C14:0/C20:4 DAG (606, 341, 15, positive), arachidonic acid or AA (303, 303, 0, negative), d8-AA (311, 267, 5, negative), PGE2 (351, 271, 10, negative), and PGD2 (351, 271, 10, negative). MS analysis was performed with an electrospray ionization source with the following parameters: drying gas temperature=350° C., drying gas flow rate=11 L/min, and the nebulizer pressure=35 psi. Prostaglandin SRM parameters were based on previously reported methods and transitions. Metabolites targeted by SRM were quantified by measuring the area under the peak in comparison with the internal standards. For metabolites where isotopic internal standards were not used, external standard curves with the internal standard versus metabolite standard were generated. In DAGL substrate assays, formation of the hydrolysis product, 2-AG was followed by measuring the area under the peak for 2-AG in comparison to the 1-monopentadecanoin standard ion.

DAGLB [2] = biological target: T3, DAGLB (Mus musculus, UniProt Q91WC9); assay: ABPP-SILAC in Neuro2A cells; details: about 4 hours; 25 nM KT172, 50 nM KT109
T3 sequence (Q91WC9 1-669): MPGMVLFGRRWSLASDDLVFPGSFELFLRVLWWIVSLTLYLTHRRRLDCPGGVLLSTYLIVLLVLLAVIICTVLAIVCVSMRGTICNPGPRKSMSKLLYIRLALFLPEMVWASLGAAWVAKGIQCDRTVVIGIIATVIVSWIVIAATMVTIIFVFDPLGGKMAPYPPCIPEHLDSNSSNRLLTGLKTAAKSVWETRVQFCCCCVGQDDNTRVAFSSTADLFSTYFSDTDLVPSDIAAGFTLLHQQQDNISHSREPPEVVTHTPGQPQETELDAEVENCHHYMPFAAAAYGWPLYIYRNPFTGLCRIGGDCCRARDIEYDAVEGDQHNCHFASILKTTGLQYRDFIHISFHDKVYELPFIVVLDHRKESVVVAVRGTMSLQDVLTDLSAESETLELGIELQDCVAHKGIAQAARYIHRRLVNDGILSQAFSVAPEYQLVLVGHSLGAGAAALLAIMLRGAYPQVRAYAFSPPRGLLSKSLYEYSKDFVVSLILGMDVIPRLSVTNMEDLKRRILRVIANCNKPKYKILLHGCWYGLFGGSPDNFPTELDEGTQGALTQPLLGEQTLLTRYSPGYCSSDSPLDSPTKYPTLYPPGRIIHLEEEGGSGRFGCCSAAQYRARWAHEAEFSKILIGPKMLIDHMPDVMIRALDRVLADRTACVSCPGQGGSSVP

DAGLB [3] = biological target: T3, DAGLB; assay: ABPP-MudPIT of peritoneal macrophages from treated mice; details: in vivo
[4] = test system: serine hydrolases in the peritoneal macrophage proteome; assay: ABPP-MudPIT of peritoneal macrophages from treated mice, off-targets; details: mouse, in vivo
DAGLB [5] = biological target: T3, DAGLB; assay: In situ inhibition in Neuro2A cells, competitive ABPP with HT-01; type: cell-based; set-up: from tissue; host or cells: thioglycolate-elicited peritoneal macrophages of treated mice; details: 4 hours
Description: For gel-based competitive ABPP studies, proteomes from cells treated in situ with inhibitor for 4 h at 37° C. at the indicated concentrations (n=3) were labeled with HT-01 (1 μM) for 30 min at 37° C. After quenching, SDS-PAGE, and in-gel visualization, the percentage of enzyme activity remaining was determined by measuring the integrated optical intensity of the bands using IMAGER® software. For LC-MS substrate assays, the percentage of enzyme activity remaining was determined by comparing the specific activity (amount of 2-AG formed per min per mg of proteome) of inhibitor with DMSO-treated samples. The IC50 values were determined from a dose-response curve generated using GraphPad PRISM® software.

DAGLB [6] = biological target: T3, DAGLB; assay: In vivo DAGLB inactivation in peritoneal macrophages, gel-based competitive ABPP using HT01; set-up: from tissue; host or cells: thioglycolate-elicited peritoneal macrophages of treated mice; details: i.p.
DAGLB [7] = biological target: T3, DAGLB; assay: Gel-based ABPP assay against recombinant DAGLB (HEK293T-DAGLB lysates); type: biochemical; set-up: Full-length cDNAs encoding serine hydrolases were purchased from Open Biosystems; V5; host or cells: HEK293T; details: recombinant

T1 sequence (Q6WQJ1 whole entry): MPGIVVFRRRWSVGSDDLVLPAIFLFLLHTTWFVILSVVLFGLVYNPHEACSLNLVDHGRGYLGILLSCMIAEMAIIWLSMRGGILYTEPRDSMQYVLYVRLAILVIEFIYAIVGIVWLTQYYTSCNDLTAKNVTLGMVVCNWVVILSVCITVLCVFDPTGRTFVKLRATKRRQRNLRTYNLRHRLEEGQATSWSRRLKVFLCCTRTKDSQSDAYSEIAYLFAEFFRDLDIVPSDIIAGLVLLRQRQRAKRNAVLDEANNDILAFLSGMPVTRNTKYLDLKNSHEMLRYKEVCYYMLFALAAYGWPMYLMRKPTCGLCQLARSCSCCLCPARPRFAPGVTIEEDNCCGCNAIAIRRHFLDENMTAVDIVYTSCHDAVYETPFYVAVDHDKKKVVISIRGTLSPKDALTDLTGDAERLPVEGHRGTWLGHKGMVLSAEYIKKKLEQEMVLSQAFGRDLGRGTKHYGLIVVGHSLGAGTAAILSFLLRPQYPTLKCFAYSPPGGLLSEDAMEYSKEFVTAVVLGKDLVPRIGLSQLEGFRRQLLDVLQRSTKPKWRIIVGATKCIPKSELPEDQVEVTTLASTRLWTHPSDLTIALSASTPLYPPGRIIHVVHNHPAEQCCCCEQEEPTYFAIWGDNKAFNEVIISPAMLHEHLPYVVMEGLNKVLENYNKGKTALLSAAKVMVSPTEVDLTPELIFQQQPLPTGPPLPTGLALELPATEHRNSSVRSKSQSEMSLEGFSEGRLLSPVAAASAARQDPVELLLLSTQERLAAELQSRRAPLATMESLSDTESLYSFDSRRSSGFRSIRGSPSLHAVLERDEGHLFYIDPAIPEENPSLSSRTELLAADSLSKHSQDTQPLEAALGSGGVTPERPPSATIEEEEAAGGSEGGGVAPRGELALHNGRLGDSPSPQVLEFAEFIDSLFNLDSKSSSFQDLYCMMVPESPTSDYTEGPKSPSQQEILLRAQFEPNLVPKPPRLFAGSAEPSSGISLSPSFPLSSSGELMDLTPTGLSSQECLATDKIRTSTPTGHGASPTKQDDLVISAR

COc1ccccc1-c1ccc(-c2cn(C(=O)N3CCCCC3Cc3ccccc3)nn2)cc1 (centres unmarked) [KT172]
activity against DAGLA (DAGLA): more potent against the alpha isoform in comparison with KT109
off-target activity / selectivity against other serine hydrolases [1]: mild activity against this off-target enzyme at higher concentrations; also recorded: slightly increased activity against MGLL
reduction of HT01 probe labeling of the DAGLB band (endogenous DAGLB): > 80%
change in 2-AG (peritoneal macrophages): Dramatic decreases in 2-AG
change in SAG (peritoneal macrophages): significant increases in SAG
change in cellular AA, PGE2 and PGD2 (peritoneal macrophages): significant decreases in cellular AA levels and a corresponding reduction in PGE2 and PGD2
DAGLB activity blocked (DAGLB [2]): approximately 90%
DAGLB inhibition by spectral counting (DAGLB [3]): confirmed inhibition of DAGLB
off-target activities [4]: carboxylesterases (Ces3 and Ces2g)
IC50 (DAGLB [5]): 0.011 µM
time to complete inhibition of DAGLB (DAGLB [6]; 5 mg/kg): within the first hour
duration / time-course of DAGLB inhibition (DAGLB [6]; 5 mg/kg, about 1 to 16 hours): shorter compared with KT109
dose (as low as) giving complete inactivation of DAGLB in peritoneal macrophages (DAGLB [6]; about 4 hours, doses about 10 to about 0.1 mg/kg): 0.5 mg/kg
activity against DAGLB (DAGLB [7]): maintaining potency against DAGLB
